# Results: patent US20230226065A1, “ANTI-INFLAMMATORY COMPOSITIONS, METHODS AND USES THEREOF” (COMVITA LIMITED, priority 2020, published 2023)
# Key:
# [1] = test system: COX-2 protein expression in THP-1 cells; experiment: LPS-induced COX-2 protein expression in THP-1 cells (Western blot); type: cell-based, human; conditions: for COX-2 Relative expression (mean ± SEM): LPS 24 hours, LPS positive control 1.26 ± 0.11, n=6
# Procedure: THP-1 cells were seeded in 12-well tissue-culture treated plates at a density of 500,000 cells/well in growth media overnight. […] Cells were washed with cold PBS and lysed in RIPA buffer containing protease inhibitors (Sigma P2714) for 15 minutes on ice. Debris was pelleted by centrifugation at 14,000×g for 15 min and lysate supernatants were frozen at −80° C. for later analysis by western blot.
# Western blots for semi-quantitative COX-2 (Abcam ab188183) protein expression were conducted on THP-1 monocyte cells lysed with RIPA buffer containing protease inhibitors. A total of 10 μg protein was loaded onto precast 10% acrylamide gels (BioRad, NZ) then separated by electrophoresis at 120 V at room temperature. […] The membranes were then incubated with the primary antibody that correspond to the protein of interest for 1 h. […] Western blot images were captured with an Amersham™ Imager 600 (GE Healthcare, Chicago, Ill., USA) and densitometry measurement of protein bands was analysed with the accompanying image analysis software.
# For analysis of Western blots, densitometry measurements from the proteins of interest were normalised to the densitometry of p-actin for each sample. […] The significance level was set at p≤0.05.
# [2] = test system: inactive MMP-9 (pro-MMP-9); experiment: Gelatin gel zymography, inactive MMP-9 band; type: biochemical; conditions: inactive MMP-9 (~47 kDa band); densitometry vs no inhibitor; n=5
# Procedure: (§1) Novex™ 10% Zymogram Plus (Gelatin) Protein Gels (15 wells) were purchased from Thermo Fisher Scientific Inc. (Auckland, New Zealand). All chemicals required for the zymogram analysis were also purchased from Thermo Fisher, these include Novex™ Sharp Pre-stained Protein Standard, Novex Tris-Glycine SDS sample buffer, Novex Tris-Glycine SDS running buffer, Novex Zymogram renaturing buffer and Novex Zymogram developing buffer. […] Gelatin gel zymography was performed as an independent technique to confirm the inhibition of MMP-9 from 3,6,7-trimethyllumazine. This technique uses a non-reducing SDS-PAGE (sodium dodecyl sulfate polyacrylamide gel electrophoresis) gel embedded with gelatin. Proteins are migrated and separated during electrophoresis. The SDS is removed after electrophoresis and the gel is then incubated with essential cofactors required for enzymatic activity. The embedded gelatin can be digested by MMP-9, resulting in clear bands on a dark blue background after staining with Coomassie blue dyes. The gelatinase activity is represented by band densitometry, which can be assessed with image analysis software. […]
# (§2) After incubation, the gelatin gel was rinsed with water for three times (5 min each) under gentle agitation. […] MMP-9 activities were analysed using densitometry on ImageJ Version 1.52a. […]
# [3] = test system: active MMP-9; experiment: Gelatin gel zymography, active MMP-9 band; type: biochemical; conditions: active MMP-9 (~37 kDa band); densitometry vs no inhibitor; n=5
# Procedure: as §1, §2
# [4] = test system: differentiated THP-1 cells; experiment: WST-1 cell viability, differentiated THP-1 cells; type: cell-based; conditions: for cell death: human
# Procedure: To measure cytotoxicity of 3,6,7-trimethyllumazine at different doses, 2-(4-Iodophenyl)-3-(4-nitrophenyl)-5-(2,4-disulfophenyl)-2H-tetrazolium, monosodium salt (WST-1) (Roche, 11644807001, Lot #45255800) was used. WST-1 is a cell proliferation reagent for measurement of cellular proliferation, viability, and cytotoxicity using a colorimetric assay (Gosert (2011); Peskin (2000)).
# After incubation, a portion of the culture media was taken and stored for MMP-9 secretion testing using ELISA. The remaining media in the plates was then removed and 100 μl of WST-1 in RPMI-1640 media (1:10 dilution) was added to each cell well and incubated at 37° C. for a further 4 hours. The plates were then read using a plate reader at wavelength of 450 nm. Cytotoxicity was calculated as follows:
# [WST-1 score for each sample/WST-1 score for the control]×100
# A WST-1 score below 80% will be considered cytotoxic.
compound,measurement,setting,value
"Cc1nc2[nH]c(=O)n(C)c(=O)c2nc1C [3,6,7-trimethyllumazine]",COX-2 Relative expression (mean ± SEM),[1]; 12.5 μg/mL,0.98 ± 0.05
same,COX-2 Relative expression (mean ± SEM),[1]; 25 μg/mL,0.99 ± 0.07
same,reduction in COX-2 protein compared to the LPS treatment,[1]; 50 ug/mL,significant reduction
same,COX-2 Relative expression (mean ± SEM),[1]; 50 μg/mL,0.90 ± 0.09
same,COX-2 Relative expression (mean ± SEM),[1]; 100 μg/mL,0.96 ± 0.13
same,reduction of COX-2 protein expression compared to LPS-stimulated cells,"[1]; all doses tested, 12.5-100 μg/mL",16-23%
same,percentage inhibition of gelatinase activity,[2],17%
same,percentage inhibition of gelatinase activity,[3],31%
same,WST-1 score (cell viability),"[4]; 40 μg/mL, below 80% considered cytotoxic",79.8%
same,cell death,[4]; 30 μg/mL,13%
same,cell death,[4]; 40 μg/mL,20%
